Reference: publication PMC3856129, “Cytotoxicity and Genotoxicity Evaluation of Organochalcogens in Human Leucocytes: A Comparative Study between Ebselen, Diphenyl Diselenide, and Diphenyl Ditelluride” (BioMed Research International, 2013)

What was measured:
[1] = test system: human leucocytes; test: Comet Assay (DNA damage index); assay type: cell-based; conditions: 3 hours at 37°C, compared to the control group
Method: (§1) 2 mL of dextran 5% (dissolved in Phosphate Buffer Saline 1%) was added to 8 mL of blood. The tube was gently mixed and left to stand at room temperature for 45 min. Afterwards, the supernatant was centrifuged (480 ×g, 10 min) and plasma was discarded. The pellet was washed with erythrocyte lysis solution (NH4Cl 150 mM; NaHCO3 10 mM; EDTA 1 mM) and centrifuged (480 ×g, 2 min). The supernatant was discarded and the pellet was washed twice with 1 mL erythrocyte lysis solution. After the second centrifugation, the pellet was suspended in 2 mL Hank's buffer solution (KCl 5.4 mM; Na2HPO4 0.3 mM; KH2PO4 0.4 mM; NaHCO3 4.2 mM; MgCl2 0.5 mM; NaCl 122.6 mM; D-glicose 10 mM, Tris-HCl 10 mM; CaCl2 1.3 mM; pH 7.4). The concentration of leucocytes was adjusted to 2000 cells/μL.
(§2) Leucocytes were exposed to ebselen, (PhSe)2, and (PhTe)2 at 5, 10, and 50 μM or an equal volume of DMSO (final concentration of 0.5%) during 3 hours at 37°C. Positive control group was treated with hydrogen peroxide (H2O2) 2 mM and sodium azide 1 mM.
Comet Assay was performed according to Collins with some modifications. After three hours of incubation, 15 μL of the sample was mixed with 90 μL of low-melting point agarose 0.75% and placed in a slide precoated with agarose 1%. A coverslip was added and the samples were left to solidify at 4°C. The coverslips were removed and the slides were placed on a lysis solution (NaCl 2.5 M; EDTA 100 mM; Tris-HCl 8 mM; Triton X-100 1%; pH 10–10.5) during 24 hours at 4°C. Afterwards, the slides were incubated in an electrophoresis solution (NaOH 300 mM; EDTA 1 mM; pH 13.5) for 20 minutes at 4°C and the electrophoresis was performed (25 V; 300 mA; 7 W) for 20 minutes. All the steps were performed in the dark until this moment. After electrophoresis, the slides were washed in a neutralizing solution (Tris-HCl 400 mM; pH 7.5) three times, washed with distilled water, and left to dry. The slides were rehydrated and fixed (Trichloroacetic acid 15%; ZnSO4 5%; glycerol 5%), washed three with distilled water, and left to dry. Afterwards, the rehydrated slides were stained (Na2CO3 5%; NH4NO3 0.1%; AgNO3 0.1%; H4[W12SiO40] 0.25%; formaldehyde 0.15%). The slides were immersed in acetic acid 1%, washed, and left to dry.
One hundred cells randomly selected were analyzed in each sample according to tail size and intensity in five classes. The damage score for each cell can range between 0 (no damage) and 4 (maximum damage), according to Figure 1. Damage index (DI) was defined as follows: DI = 1n1 + 2n2 + 3n3 + 4n4, where n1 represents the number of cells with damage level 1, n2 represents the number of cells with damage level 2, n3 represents the number of cells with damage level 3, and n4 represents the number of cells with damage level 4. At least two different individuals analyzed the slides under blind conditions.

[2] = test system: human leucocytes; test: Trypan's Blue exclusion test (cell viability); assay type: cell-based; conditions: for decrease in leucocyte viability: 50 μM; for effect on cell viability at lower concentrations: 5 and 10 μM
Method: as §1, §2
Trypan's Blue exclusion test was performed according to Mischel and Shiingi. After 3 hours of incubation, 50 μL of Trypan's Blue 0.4% was mixed with 50 μL of leucocytes and left to stand at room temperature for 5 minutes. Cell viability was determined microscopically (400x magnification) and expressed as number of viable cells divided by the total number of cells multiplied by 100.

[3] = 3 hours at 37°C, compared to the control groups

SMILES | damage index (DI) of DNA ([1]; 50 μM) | damage index (DI) of DNA ([1]; 5 and 10 μM) | decrease in leucocyte viability [2, 3] | effect on cell viability at lower concentrations ([2]; 3 hours at 37°C) | decrease in leucocyte viability ([2]; human, 3 h, pH 7.4)
c1ccc([Te][Te]c2ccccc2)cc1 [(PhTe)2, Diphenyl Ditelluride] | significant increase in DI | increased DI | about 25% | did not cause significant decrease in cell viability | –
O=c1c2ccccc2[se]n1-c1ccccc1 [ebselen, Ebselen] | significant increase in DI | did not cause DNA damage | – | – | about 60%
c1ccc([Se][Se]c2ccccc2)cc1 [(PhSe)2, Diphenyl Diselenide] | significant increase in DI | did not cause DNA damage | about 20% | did not cause significant decrease in cell viability | –
